The subject of one assay is malignant tumors. Briefly: Peptide immunotherapy of patients, tumor response by RECIST criteria (CT/MRI). The assay is classed as in vivo, human. Further details: key to RECIST, single lung metastasis / RECIST, total sum of longest diameters of 10 metastatic target lesions / RECIST, pubic bone metastatic tumor / RECIST determination 3 months after starting W10 peptide therapy: CR: all target lesions have disappeared; PR: the sum of the longest diameters of the target lesions decreases by at least 30%; PD: the sum of the longest diameters of the target lesions increases by at least 20%; SD: the change of tumr size is between PR or PD. The procedure: Among 18 patients, 3 people are illustrated in the style of case reports. […] The mixture was prepared immediately prior to administration. When W10 peptide was administered without petussis vaccine in the safety test, W10 peptide solution was divided into 4 equal portions and injected intradermally at 4 locations in the same manner. A method to measure the diameter of a tumor and a method to analyze peptide-specific T-cells using an HLA-A24 tetramer by flow cytometry are described below.
The international RECIST criteria referred to here is an evaluation standard described in Theresse, P. et al., J Natl Cancer Inst. 2000, 92, 205-216. When there is confirmation by helical CT or MRI that all target lesions have disappeared this is defined as CR (complete response), when the sum of the longest diameters of the target lesions decreases by at least 30% this is defined as PR (partial response), when the sum of the longest diameters of the target lesions increases by at least 20% this is defined as PD (progressive disease), and when the change of tumr size is between PR or PD this is defined as SD (stable disease). However, regardless of the presence or absence of a change in the target lesions, when even one new lesion appears this is defined as PD.
Based on the above-mentioned international RECIST criteria, which is used for evaluation of anticancer drugs, all measurable tumors were selected as target tumors, and change in the SLD of the tumors over the course of the therapy was monitored. In addition, number of all the tumors was counted, regardless of the size of a tumor, every time diagnostic imaging was carried out in order to lookout for new lesions. Diagnostic imaging was carried out in principle once a month by helical CT or MRI. If even one new metastasis appeared, regardless of the change in the primary lesion, it was judged as PD.
Clinical responses were evaluated according to the aforementioned international RECIST criteria for 18 patients who had been treated by immunotherapy using W10+Wc for at least 3 months and one week. Eight cased out of 18 patients were judged as SD, 10 cased were PD. […] In reports on peptide immunotherapy so far, the tumor control rate was limited to a few % up to ten or so % worldwide (Reference Documents 1 to 4). Compared with these already reported cases, this is a good reaction.

For assay [1], the system named is IFN-γ-producing cells in peripheral blood mononuclear cells. The assay can be described thus: ELISPOT of patients' PBMCs before and after W10 peptide immunization. Format: cell-based, human. The procedure:
In order to compare the cytotoxicity of peripheral blood mononuclear cells between that before administration of 5×10̂8 cells of whole-cell pertussis vaccine and 3 mg of W10 peptide to that after administering it three times, peripheral blood mononuclear cells were cultured with the immunizing peptide under conditions described later, and the number of cells that produced IFN-γ in a peptide-dependent manner were counted. The cells used for the ELISPOT assay are also described later.
The results are shown in FIG. 6 (response of PBMC of patients having HLA-A*2402), FIG. 7 (response of patients having HLA-A*0201), and FIG. 8 (response of patients having HLA-A*0206). The abscissa denotes the peptide that was bound to antigen presenting cells (in the figures, referred to as APCs (antigen presenting cells)), and the ordinate denotes the number of INF-γ-producing cells per 1×10̂4 cells. The response of peripheral blood mononuclear cells one week after three-time immunizations is shown with closed bars, and the response of peripheral blood mononuclear cells collected immediately before immunization is shown with open bars. […]
Peripheral blood mononuclear cells (PBMC) were stimulated in vitro once a week for a total of three times and then, the number of cells that produced IFN-γ in response to the antigen peptide were counted. […]

Assay [2] relates to HLA-A*2402 positive cell lines that express WT1 naturally (KAZZ, KCL22, KH88, MEG01). The assay can be described thus: Reactivity of WT1 peptide-specific cell lines toward tumor cells (IFN-γ ELISPOT). Format: cell-based, human. To be noted: cell lines established from HLA-A*2402 positive patients, FIG. 5. An excerpt:
Reactions of cell lines established from different patients are arranged in a bar graph.

Values joined by “and” are separate entries in the source; they are usually repeats but may differ in a detail not shown here. Equal entries are not always repeated. Where no end group is shown, it is not given here.

Turning to ALLPAVPSL [W10], the “Duration of tumor control (weeks)” value in the assay with malignant tumors (one line per patient case, W10+Wc immunotherapy, weekly intradermal, listed as W10 peptide) is 37 weeks and 30 weeks and 32 weeks and 10 weeks and 4 weeks and 0 weeks (6×) and 6 weeks and 17 weeks and 19 weeks and 12 weeks and 33 weeks and 38 weeks. Besides, the “RECIST determination 3 months after starting W10 peptide therapy” value in the assay with malignant tumors (one line per patient case, W10+Wc immunotherapy, listed as W10 peptide) was “SD (7×) and SD > PD and PD (the sum of the longest diameters of the target lesions increases by at least 20%) (10×)”. Besides, the “RECIST, pubic bone metastatic tumor” value in the assay with malignant tumors (patient KB07-003, maintained for 37 weeks) is on record as “SD”. In addition, the New metastatic tumors result with malignant tumors (patient KB07-003, since W10 therapy started) is given as “no new metastatic tumors have been found”. The “Growth of metastatic tumor in the bone (SLD)” value with malignant tumors (patient KB07-005, right femur) is listed as “almost stopped”. The New distant metastasis entry in the assay on malignant tumors (patient KB07-005, throughout the period) is “no new distant metastasis was observed”. The “Growth of tumors expressing WT1” value with malignant tumors (patient KB07-006) is given as “suppressed”. Further, the “Appearance of new metastatic lesion” value with malignant tumors (patient KB07-006, 13 months after starting W10 peptide) is given as “no appearance of a new metastatic lesion”. In addition, the “RECIST, total sum of longest diameters of 10 metastatic target lesions” value was “PD (the sum of the longest diameters of the target lesions increases by at least 20%)” with malignant tumors (patient KB07-006, CT on the 37th week) and “SD” in the assay with malignant tumors (patient KB07-006, adenoid cystic carcinoma, up to 32 weeks). Further, the “Number of W10-reactive IFN-γ-producing T-cells” value in assay [1] (patient KB07-006, after 1 mg W10 peptide for 3 weeks) was “increased”. Further, the “Increase of cells producing IFN-γ in response to W10 peptide after immunization” value in assay [1] (patients with HLA-A*2402, HLA-A*0201 or HLA-A*0206, 3 mg W10 + Wc x3) is on record as “often observed”. Also, the “Reactivity of peptide-dependent cell line toward WT1-expressing cell lines compared with C1R-A24” value in assay [2] is on record as “tends to be higher although differences are small”.

These data come from patent US20100255020A1, “METHOD FOR INDUCING CYTOTOXIC T-CELLS, CYTOTOXIC T-CELL INDUCERS, AND PHARMACEUTICAL COMPOSITIONS AND VACCINES EMPLOYING THEM” (NEC CORPORATION, priority 2007, published 2010).
